The source of these data is ChEMBL document CHEMBL2040791, “Synthesis of novel 6-(4-substituted piperazine-1-yl)-9-(β-D-ribofuranosyl)purine derivatives, which lead to senescence-induced cell death in liver cancer cells” (J Med Chem, 2012).

Experiment [1] can be described thus: Cytotoxicity against human Mahlavu cells after 72 hrs by SRB assay. The experiment is classed as functional, cell-based. On the technique in general: Sulforhodamine B stains cellular protein and so reports cell mass.
The subject of experiment [2] is MCF7. Kind of experiment: Cytotoxicity against human MCF7 cells after 72 hrs by SRB assay. The experiment is classed as functional, cell-based.
Experiment [3] relates to HepG2. The experiment in a line: Cytotoxicity against human HepG2 cells after 72 hrs by SRB assay. Type of experiment: functional, cell-based.
Experiment [4] deals with HCT-116. Kind of experiment: Cytotoxicity against human HCT116 cells after 72 hrs by SRB assay. Type of experiment: functional, cell-based.
In experiment [5] the test system is Huh-7. Kind of experiment: Cytotoxicity against human HuH7 cells after 72 hrs by SRB assay. The experiment is classed as functional, cell-based.
The nature of experiment [6]: Cytotoxicity against human FOCUS cells after 72 hrs by SRB assay. The experiment is classed as functional, cell-based.
The test system of experiment [7] is FOCUS. The experiment in a line: Growth inhibition of human FOCUS cells at 5 to 30 uM by real-time cell electronic sensing assay. Type of experiment: functional, cell-based. To be noted: TDE = time-dependent effect.
The test system of experiment [8] is Huh-7. Kind of experiment: Induction of apoptosis in human HuH7 cells assessed as PARP cleavage into 89 kDa and 24 kDa fragments at 7.8 uM after 72 hrs by Western blot analysis. Type of experiment: functional, cell-based. Background: A western blot detects proteins with antibodies after separation by electrophoresis.
The test system of experiment [9] is FOCUS. Kind of experiment: Induction of apoptosis in human FOCUS cells assessed as PARP cleavage into 89 kDa and 24 kDa fragments at 5.2 uM after 72 hrs by Western blot analysis. Type of experiment: functional, cell-based.
For experiment [10], the system named is Mahlavu. The experiment in a line: Induction of apoptosis in human Mahlavu cells assessed as PARP cleavage into 89 kDa and 24 kDa fragments at 9.2 uM after 72 hrs by Western blot analysis. The experiment is classed as functional, cell-based.
In experiment [11] the test system is Huh-7. Kind of experiment: Induction of p15INK4b protein expression in human HuH7 cells assessed as inhibition of cyclinD1/[…]-mediated Rb phosphorylation at cytotoxic IC50 to IC100 concentration after 6 days by Western blot analysis. Type of experiment: functional, cell-based.
For experiment [12], the system named is Huh-7. Kind of experiment: Induction of p15INK4b protein expression in human HuH7 cells after 3 to 6 days by Western blot analysis. Type of experiment: functional, cell-based.
In experiment [13] the test system is FOCUS. The experiment in a line: Induction of necrosis in human FOCUS cells assessed as PARP cleavage into 50 kDa fragment at 5.2 uM after 72 hrs by Western blot analysis. Type of experiment: functional, cell-based.
In experiment [14] the test system is Huh-7. The experiment in a line: Growth inhibition of human HuH7 cells at 5 to 30 uM by real-time cell electronic sensing assay. Type of experiment: functional, cell-based. The following applies: TDE = time-dependent effect.
The test system of experiment [15] is FOCUS. Kind of experiment: Growth inhibition of human FOCUS cells measured every 30 mins by real-time cell electronic sensing assay. Type of experiment: functional, cell-based.
Experiment [16] deals with HepG2. Kind of experiment: Growth inhibition of human HepG2 cells measured every 30 mins by real-time cell electronic sensing assay. The experiment is classed as functional, cell-based.
Experiment [17] concerns Mahlavu. The experiment in a line: Growth inhibition of human Mahlavu cells measured every 30 mins by real-time cell electronic sensing assay. The experiment is classed as functional.
Experiment [18] deals with Huh-7. Kind of experiment: Induction of necrosis in human HuH7 cells assessed as PARP cleavage into 50 kDa fragment at 7.8 uM after 72 hrs by Western blot analysis. The experiment is classed as functional, cell-based.
Experiment [19] has as its system Huh-7. The experiment in a line: Induction of senescence in human HuH7 cells assessed as increase in senescence associated beta-galactosidase activity at cytotoxic IC50 to IC100 concentration after 3 to 6 days by X-GAL based staining method. The experiment is classed as functional, cell-based.
The test system of experiment [20] is Mahlavu. The experiment in a line: Growth inhibition of human Mahlavu cells at 5 to 30 uM by real-time cell electronic sensing assay. Type of experiment: functional. The following applies: TDE = time-dependent effect.
Experiment [21] deals with HepG2. Kind of experiment: Induction of apoptosis in human HepG2 cells assessed as PARP cleavage into 89 kDa and 24 kDa fragments at 5.7 uM after 72 hrs by Western blot analysis. Type of experiment: functional, cell-based.
Experiment [22] relates to HepG2. Kind of experiment: Growth inhibition of human HepG2 cells at 5 to 30 uM by real-time cell electronic sensing assay. Type of experiment: functional, cell-based. The following applies: TDE = time-dependent effect.
Experiment [23] relates to Huh-7. The experiment in a line: Inhibition of protein kinase in human HuH7 cells assessed as increase in ATP level after 72 hrs by Kinase-Glo assay. The experiment is classed as cell-based.
In experiment [24] the test system is HepG2. The experiment in a line: Induction of necrosis in human HepG2 cells assessed as PARP cleavage into 50 kDa fragment into at 5.7 uM after 72 hrs by Western blot analysis. The experiment is classed as functional, cell-based.
In experiment [25] the test system is Huh-7. The experiment in a line: Induction of p15INK4b protein expression in human HuH7 cells at cytotoxic IC50 to IC100 concentration by Western blot analysis. The experiment is classed as functional, cell-based. To be noted: TDE = time-dependent effect.
In experiment [26] the test system is Huh-7. Kind of experiment: Antiproliferative activity in human HuH7 cells assessed as inhibition of BrdU incorporation at cytotoxic IC50 to IC100 concentration after 3 to 6 days. The experiment is classed as functional, cell-based.
Experiment [27] relates to Mahlavu. Kind of experiment: Induction of necrosis in human Mahlavu cells assessed as PARP cleavage into 50 kDa fragment at 9.2 uM after 72 hrs by Western blot analysis. The experiment is classed as functional, cell-based.
Experiment [28] has as its system Huh-7. Kind of experiment: Growth inhibition of human HuH7 cells measured every 30 mins by real-time cell electronic sensing assay. The experiment is classed as functional, cell-based.
Experiment [29] has as its system Huh-7. The experiment in a line: Inhibition of protein kinase in human HuH7 cells assessed as increase in ATP level at 5 uM after 72 hrs by Kinase-Glo assay. Type of experiment: cell-based. Background: In Kinase-Glo more light means more ATP remaining.
Experiment [30] concerns Huh-7. The experiment in a line: Antiproliferative activity in human HuH7 cells assessed as inhibition of BrdU incorporation at 25 ng/mL after 3 to 6 days. The experiment is classed as functional, cell-based.
In experiment [31] the test system is Huh-7. The experiment in a line: Induction of senescence in human HuH7 cells assessed as increase in senescence associated beta-galactosidase activity at 25 ng/mL after 3 to 6 days by X-GAL based staining method. Type of experiment: functional, cell-based.
Setting [32] is: Homo sapiens, MCF7, 72 h, read-out: IC50.
[33] abbreviates: Homo sapiens, HepG2, 72 h, read-out: IC50.
Setting [34] is: Homo sapiens, HCT-116, 72 h, read-out: IC50.
Setting [35] is: Homo sapiens, Huh-7, 72 h, read-out: IC50.
[36] abbreviates: mcf7, TDE = time-dependent effect.
[37] abbreviates: hepg2, TDE = time-dependent effect.
Where [38] appears, read: hct-116, TDE = time-dependent effect.
Setting [39] is: huh-7, TDE = time-dependent effect.

Each structure is given as a SMILES string. Activity calls are given as the source filed them. The rule behind the calls is not given here. Some results are limits rather than exact numbers.

For `O=c1[nH]cc(F)c(=O)[nH]1` [FLUOROURACIL], the IC50 (in general, the midpoint of a concentration-inhibition curve) came to 10 µM in experiment [1]; 3.5 µM in [2] (setting [32]); 5 µM in experiment [3] (setting [33]); 6 µM in [4] (setting [34]); 30.7 µM in experiment [5] (setting [35]); 7.6 µM in experiment [6].

In the case of `OC[C@H]1O[C@@H](n2cnc3c(N4CCN(C(c5ccccc5)c5ccccc5)CC4)ncnc32)[C@H](O)[C@@H]1O`, the IC50 in experiment [1] was 92.7 µM; in experiment [2] (setting [32]), 40.1 µM; in experiment [2] (setting [36]) it was “tde”; in experiment [3] (setting [33]), 63.5 µM; in experiment [3] (setting [37]), “tde”; in experiment [4] (setting [34]) it was 48.5 µM. The IC50 result in experiment [4] (setting [38]) is “tde”; in experiment [5] (setting [35]), 44.4 µM; in experiment [5] (setting [39]), “tde”; in experiment [6], above 100 µM.

In the case of `CC[C@@]1(O)C(=O)OCc2c1cc1n(c2=O)Cc2cc3ccccc3nc2-1` [CAMPTOTHECIN], the IC50 in experiment [1], in experiment [2] (setting [32]), in experiment [3] (setting [33]), in [4] (setting [34]), in experiment [5] (setting [35]) and in experiment [6] was below 0.1 µM in each case.

Turning to `OC[C@H]1O[C@@H](n2cnc3c(N4CCN(c5ccc(F)cc5)CC4)ncnc32)[C@H](O)[C@@H]1O`, the IC50 in [1] was above 100 µM; in [2] (setting [32]), above 100 µM; in experiment [2] (setting [36]) it was “tde”; in experiment [3] (setting [33]), above 100 µM; in experiment [3] (setting [37]), “tde”; in [4] (setting [34]) it was above 100 µM. Further, the IC50 result in [4] (setting [38]) is “tde”; in experiment [5] (setting [35]), 49.7 µM; in experiment [5] (setting [39]), “tde”; in experiment [6] it was above 100 µM.

Take `OC[C@H]1O[C@@H](n2cnc3c(N4CCN(c5ccc(Cl)c(Cl)c5)CC4)ncnc32)[C@H](O)[C@@H]1O`: the IC50 was 7 µM in experiment [1]; 9.7 µM in experiment [2] (setting [32]); “tde” in experiment [2] (setting [36]); 6.1 µM in experiment [3] (setting [33]); “tde” in experiment [3] (setting [37]); 8.4 µM in experiment [4] (setting [34]). The IC50 result in [4] (setting [38]) was “tde”; in [5] (setting [35]) it was 7.1 µM; in [5] (setting [39]) it was “tde”; in [6], 5.5 µM.

`OC[C@H]1O[C@@H](n2cnc3c(N4CCN(c5ccc(C(F)(F)F)cc5)CC4)ncnc32)[C@H](O)[C@@H]1O`: the half-inhibitory concentration (IC50) was 9.2 µM in experiment [1]; 7.5 µM in experiment [2] (setting [32]); “tde” in experiment [2] (setting [36]); 5.7 µM in experiment [3] (setting [33]); “tde” in experiment [3] (setting [37]); 6.7 µM in experiment [4] (setting [34]). Further, the IC50 result in experiment [4] (setting [38]) is “tde”; in experiment [5] (setting [35]) it was 7.8 µM; in experiment [5] (setting [39]) it was “tde”; in [6], 5.2 µM. Further, the “growth inhibition (GI)” value in [7] was “tde”; in experiment [14] it was “tde”; in [15] it was “Dose-dependent effect”; in experiment [16], “Dose-dependent effect”; in [17] it was “Dose-dependent effect”; in experiment [20], “tde”. Besides, the “growth inhibition (GI)” value in experiment [22] was “tde”; in experiment [28], “Dose-dependent effect”. The result in experiment [8], in experiment [9], in [10], in experiment [13], in experiment [18] and in experiment [21] was inactive. Further, the result in [24] and in experiment [27] was inactive. Also, the result in experiment [11], in experiment [19] and in [26] was Active. For the same molecule, the values for the Activity entry in experiment [12] and in [25] were “Dose-dependent effect” and “tde”, respectively. Further, the inhibition result in experiment [23] is “Dose-dependent effect”.

As to `CSC[C@H]1O[C@@H](n2cnc3c(N)ncnc32)[C@H](O)[C@@H]1O`, the inhibition entry in experiment [29] is “Active”.

With `COc1cccc2c1C(=O)c1c(O)c3c(c(O)c1C2=O)C[C@@](O)(C(=O)CO)C[C@@H]3O[C@H]1C[C@H](N)[C@H](O)[C@H](C)O1`, the outcome in experiment [30] and in experiment [31] was Active.

Consider `OC[C@H]1O[C@@H](n2cnc3c(N4CCN(c5ccccc5)CC4)ncnc32)[C@H](O)[C@@H]1O`, for which the IC50 was above 100 µM in experiment [1]; above 100 µM in [2] (setting [32]); “tde” in experiment [2] (setting [36]); above 100 µM in [3] (setting [33]); “tde” in experiment [3] (setting [37]); above 100 µM in experiment [4] (setting [34]). The IC50 entry in [4] (setting [38]) was “tde”; in experiment [5] (setting [35]) it was above 100 µM; in experiment [5] (setting [39]), “tde”; in experiment [6], above 100 µM.
